Each structure is given as a SMILES string. The source made the active and inactive calls. No cut-off for these calls is given here. Bounds are passed on as bounds.

Experiment [1] deals with Phosphoserine phosphatase SerB2 (Mycobacterium tuberculosis) (UniProt O53289). Briefly: Binding affinity to Mycobacterium tuberculosis SerB2 expressed in Escherichia coli BL21 (DE3) cells assessed as protein destabilization at 4 mM by differential scanning fluorimetry. (In DSF a fluorescence change marks the thermal transition of the protein.)
Experiment [2] has the same target. Briefly: Binding affinity to Mycobacterium tuberculosis SerB2 expressed in Escherichia coli BL21 (DE3) cells assessed as change in melting temperature at 4 mM by differential scanning fluorimetry.
For experiment [3] the target is unchanged. The experiment can be described thus: Inhibition of Mycobacterium tuberculosis SerB2 expressed in Escherichia coli BL21 at 1 mM incubated for 10 mins by malachite green dye based phosphatase assay relative to control.
Experiment [4] shares this target. Briefly: Inhibition of Mycobacterium tuberculosis SerB2 expressed in Escherichia coli BL21 at 1 mM incubated for 10 mins by malachite green dye based phosphatase assay.

Sequence of Phosphoserine phosphatase SerB2 (Mycobacterium tuberculosis) (O53289 whole entry): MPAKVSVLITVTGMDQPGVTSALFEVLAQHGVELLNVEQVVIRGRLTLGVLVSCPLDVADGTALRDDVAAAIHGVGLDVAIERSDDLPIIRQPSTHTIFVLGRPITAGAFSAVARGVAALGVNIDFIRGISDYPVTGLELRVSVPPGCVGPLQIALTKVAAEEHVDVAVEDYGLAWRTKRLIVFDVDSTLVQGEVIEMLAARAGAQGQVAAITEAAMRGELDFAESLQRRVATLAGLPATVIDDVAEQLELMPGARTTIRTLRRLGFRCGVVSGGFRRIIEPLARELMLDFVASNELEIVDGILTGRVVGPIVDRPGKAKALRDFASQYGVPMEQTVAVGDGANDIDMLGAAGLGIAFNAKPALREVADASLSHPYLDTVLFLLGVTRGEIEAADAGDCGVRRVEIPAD

Usually ΔTm stands for the change in melting temperature against a reference sample. Consider `Nc1ccncc1`, for which the outcome in experiment [1] was Active. Besides, the ΔTm in experiment [2] was above 0.5 °C.
One may read the inhibition as how much of the control response was suppressed. `O=C(O)c1cc(O)ccn1`: the result in experiment [1] was Active. In experiment [3], this molecule displayed an inhibition above 50%. Besides, the ΔTm in experiment [2] is above 0.5 °C.
`N[C@@H](CCS(=O)(=O)O)C(=O)O`: the result in experiment [1] was Active. Also, the ΔTm in experiment [2] is above 0.5 °C.
With `O=C(NO)Nc1ccc(Cl)cc1Cl`, the result in experiment [1] was Active. In experiment [3], this molecule came in with an inhibition above 50%. Also, the ΔTm in experiment [2] was above 0.5 °C.
In the same order, the values of `O=P(O)(O)C(O)(Cn1ccnc1)P(=O)(O)O` are “Active”, above 50% and above 0.5 °C.
As for `Nc1ccc(C(=O)O)c(O)c1`, the inhibition entry in experiment [4] was “Active”.
The same measure, in the same setting: under `c1c[nH]cn1` stands “Active”.
Take `Cc1cc(C2CCCCC2)n(O)c(=O)c1`: in experiment [1], the result was Active. In addition, the shift in melting temperature (ΔTm) in experiment [2] was above 0.5 °C.
For the molecule `CCC(N)P(=O)(O)O` (configuration not stated), the inhibition result in experiment [4] is “Active”.
As for `c1ccc(-c2c[nH]cn2)cc1`, the result in experiment [1] was Active. Further, in experiment [2], the ΔTm was above 0.5 °C.
On to `NC(=O)NO`, for which the outcome in experiment [1] was Active. Moreover, the ΔTm in experiment [2] is above 0.5 °C. In addition, the inhibition entry in experiment [4] is “Active”.
Take `Nc1ccc(O)cc1`: the outcome in experiment [1] was inactive. This molecule also returned an inhibition in experiment [3] above 50%. In addition, in experiment [2], the thermal shift (ΔTm) was above 0.5 °C.
Take `NCCCP(=O)(O)O`: the inhibition result in experiment [4] is “Active”.

These data come from ChEMBL document CHEMBL5385863, “Targeting the phosphoserine phosphatase MtSerB2 for tuberculosis drug discovery, an hybrid knowledge based /fragment based approach” (Eur J Med Chem, 2023).
